{"source": "patent US8933233B2", "about": "“1,3,4-oxadiazole and 1,3,4-thiadiazole β-lactamase inhibitors” (priority 2012, dated 2015)", "note": "Structures can show the parent of a compound that is named as a salt.", "data": [{"test_system": "bacterial strains that express the class D cephalosporinase OXA-15", "assay": "Synergy MIC / standard BLI potentiation MIC assay, strains expressing OXA-15", "type": "cell-based, E. coli", "details": "in presence of a β-lactam; comparator Avibactam (CCC)", "procedure": "Unless otherwise indicated, the activity of the BLI compounds can be described by the MIC value obtained from a Synergy MIC assay or a BLI potentiation assay (e.g as described herein), both of which are run in the presence of a β-lactam.\nThe experimental protocol was performed according to Clinical and Laboratory Standards Institute (CLSI) guidelines with modifications as described below (CLSI guidelines can be derived from the CLSI document M07-A9 published in January 2012: “Methods for Dilution Antimicrobial Susceptibility Tests for Bacteria That Grow Aerobically; Approved Standard-Ninth Edition”).\nTo prepare for MIC testing, frozen glycerol stocks of clinical isolates (Klebsiella pneumoniae, Eschericia coli, Enterobacter spp, Citrobacter spp, or Pseudomonas aeruginosa) were used to streak for isolated colonies on rich, non-selective, tryptic soy agar containing 5% sheep's blood (TSAB). Frozen glycerol stocks of laboratory engineered, isogenic E. coli strains, which contain cloned β-lactamase expressing plasmids were used to streak for isolated colonies on rich, selective LB agar supplemented with 25 μg/mL tetracycline to maintain the plasmid. All strains were incubated at 37° C. for 18-24 hrs.\nOn the day of testing, primary cultures were started by scraping off 5-10 colonies from the TSAB plates containing clinical strains or the tetracycline supplemented LB plates containing engineered strains. The clinical strain material was suspended in ˜5 mL of cation adjusted Mueller Hinton Broth (CAMHB) in 14 mL culture tubes. The engineered strain material was suspended in CAMHB (supplemented with 25 μg/mL tetracycline) in 14 mL culture tubes. All strains were incubated at 37° C. with aeration (200 rpm) for ˜2 hrs until the optical density at 600 nm (OD600) was ≧0.1.\nThe two compound components of the assay were each diluted in CAMHB and added to the 96-well broth microdilution assay plates. 50 μL of the β-lactam was added to each well of the assay plate in 2-fold dilutions with final concentrations ranging from 128 to 0.13 μg/mL. 25 μL of the BLI compound was added to all wells in the broth microdilution plates at a final concentration of 4 μg/mL. Inoculum cultures were prepared by standardizing the primary cultures to OD600=0.1 and then adding 20 μL of the adjusted primary culture per 1 mL CAMHB for clinical strains or CAMHB (supplemented with tetracycline at 100 μg/mL) for engineered strains, so that the final inoculum density was ˜10^5 colony forming units per milliliter. Diluted inoculum cultures were used to inoculate 25 μL per well in 96-well broth microdilution assay plates. The final volume of each well was 100 μL and contained a β-lactam at different concentrations, a BLIcompound at 4 μg/mL concentration, the bacterial culture at an OD600 of approximately 0.001 and when necessary tetracycline at 25 μg/mL.\nPlates were incubated for 18-20 hours at 37° C. with aeration (200 rpm). Following incubation, growth was confirmed visually placing plates over a viewing apparatus (stand with a mirror underneath) and then OD600 was measured using a SpectraMax 340PC384 plate reader (Molecular Devices, Sunnyvale, Calif.). Growth was defined as turbidity that could be detected with the naked eye or achieving minimum OD600 of 0.1. MIC values were defined as the lowest concentration producing no visible turbidity.\nThe synergy MIC (sMIC) assay determines the concentration of the BLI required to potentiate the activity of a fixed concentration of a β-lactam antibiotic against β-lactamase producing bacterial strains. The experimental protocol was performed according to Clinical and Laboratory Standards Institute (CLSI) guidelines with modifications as described below (CLSI guidelines can be derived from the CLSI document M07-A9 published in January 2012: “Methods for Dilution Antimicrobial Susceptibility Tests for Bacteria That Grow Aerobically; Approved Standard-Ninth Edition”). […]", "values": [{"smiles": "NCC(O)c1nnc([C@@H]2CC[C@@H]3CN2C(=O)N3OS(=O)(=O)O)o1", "note": "(stereo partly drawn) [Compound 715, (2S,5R)-2-(5-(2-amino-1-hydroxyethyl)-1,3,4-oxadiazol-2-yl)-7-oxo-1,6-diazabicyclo[3.2.1]octan-6-yl hydrogen sulfate]", "activity against bacterial strains that express OXA-15, compared with Avibactam": "more active than Avibactam"}, {"smiles": "Nc1nnc([C@@H]2CC[C@@H]3CN2C(=O)N3OS(=O)(=O)O)o1", "note": "[Compound 707, (2S,5R)-2-(5-amino-1,3,4-oxadiazol-2-yl)-7-oxo-1,6-diazabicyclo[3.2.1]octan-6-yl hydrogen sulfate]", "activity against bacterial strains that express OXA-15, compared with Avibactam": "more active than Avibactam"}, {"smiles": "NCC(N)c1nnc([C@@H]2CC[C@@H]3CN2C(=O)N3OS(=O)(=O)O)o1", "note": "(stereo partly drawn) [Compound 717, (2S,5R)-2-(5-(1,2-diaminoethyl)-1,3,4-oxadiazol-2-yl)-7-oxo-1,6-diazabicyclo[3.2.1]octan-6-yl hydrogen sulfate]", "activity against bacterial strains that express OXA-15, compared with Avibactam": "more active than Avibactam"}, {"smiles": "NCC(O)Cc1nnc([C@@H]2CC[C@@H]3CN2C(=O)N3OS(=O)(=O)O)o1", "note": "(stereo partly drawn) [Compound 733, (2S,5R)-2-(5-(3-amino-2-hydroxypropyl)-1,3,4-oxadiazol-2-yl)-7-oxo-1,6-diazabicyclo[3.2.1]octan-6-yl hydrogen sulfate]", "activity against bacterial strains that express OXA-15, compared with Avibactam": "more active than Avibactam"}, {"smiles": "N=C(N)N[C@H]1C[C@H](c2nnc([C@@H]3CC[C@@H]4CN3C(=O)N4OS(=O)(=O)O)o2)C1", "note": "[Compound 748, (2S,5R)-2-(5-((1r,3S)-3-guanidinocyclobutyl)-1,3,4-oxadiazol-2-yl)-7-oxo-1,6-diazabicyclo[3.2.1]octan-6-yl hydrogen sulfate]", "activity against bacterial strains that express OXA-15, compared with Avibactam": "more active than Avibactam"}, {"smiles": "N=C(N)NCCCc1nnc([C@@H]2CC[C@@H]3CN2C(=O)N3OS(=O)(=O)O)o1", "note": "[Compound 714, (2S,5R)-2-(5-(3-guanidinopropyl)-1,3,4-oxadiazol-2-yl)-7-oxo-1,6-diazabicyclo[3.2.1]octan-6-yl hydrogen sulfate]", "activity against bacterial strains that express OXA-15, compared with Avibactam": "more active than Avibactam"}, {"smiles": "O=C1N2C[C@@H](CC[C@H]2c2nnc(N3CCNCC3)s2)N1OS(=O)(=O)O", "note": "[Compound 797, (2S,5R)-7-oxo-2-(5-(piperazin-1-yl)-1,3,4-thiadiazol-2-yl)-1,6-diazabicyclo[3.2.1]octan-6-yl hydrogen sulfate]", "activity against bacterial strains that express OXA-15, compared with Avibactam": "more active than Avibactam"}, {"smiles": "N=C(N)N1CCC(c2nnc([C@@H]3CC[C@@H]4CN3C(=O)N4OS(=O)(=O)O)o2)CC1", "note": "[Compound 712, (2S,5R)-2-(5-(1-carbamimidoylpiperidin-4-yl)-1,3,4-oxadiazol-2-yl)-7-oxo-1,6-diazabicyclo[3.2.1]octan-6-yl hydrogen sulfate]", "activity against bacterial strains that express OXA-15, compared with Avibactam": "more active than Avibactam"}, {"smiles": "O=C1N2C[C@@H](CC[C@H]2c2nnc(CCCN3CCNCC3)o2)N1OS(=O)(=O)O", "note": "[Compound 792, (2S,5R)-7-oxo-2-(5-(3-(piperazin-1-yl)propyl)-1,3,4-oxadiazol-2-yl)-1,6-diazabicyclo[3.2.1]octan-6-yl hydrogen sulfate]", "activity against bacterial strains that express OXA-15, compared with Avibactam": "more active than Avibactam"}, {"smiles": "N[C@H]1CC[C@H](c2nnc([C@@H]3CC[C@@H]4CN3C(=O)N4OS(=O)(=O)O)o2)CC1", "note": "[Compound 781, (2S,5R)-2-(5-((1r,4S)-4-aminocyclohexyl)-1,3,4-oxadiazol-2-yl)-7-oxo-1,6-diazabicyclo[3.2.1]octan-6-yl hydrogen sulfate]", "activity against bacterial strains that express OXA-15, compared with Avibactam": "more active than Avibactam"}, {"smiles": "O=C1N2C[C@@H](CC[C@H]2c2nnc(CNC3CCNCC3)o2)N1OS(=O)(=O)O", "note": "[Compound 769, (2S,5R)-7-oxo-2-(5-((piperidin-4-ylamino)methyl)-1,3,4-oxadiazol-2-yl)-1,6-diazabicyclo[3.2.1]octan-6-yl hydrogen sulfate]", "activity against bacterial strains that express OXA-15, compared with Avibactam": "more active than Avibactam"}, {"smiles": "O=C1N2C[C@@H](CC[C@H]2c2nnc([C@@H]3CNCCN3)o2)N1OS(=O)(=O)O", "note": "[Compound 778, (2S,5R)-7-oxo-2-(5-((S)-piperazin-2-yl)-1,3,4-oxadiazol-2-yl)-1,6-diazabicyclo[3.2.1]octan-6-yl hydrogen sulfate]", "activity against bacterial strains that express OXA-15, compared with Avibactam": "more active than Avibactam"}, {"smiles": "N[C@H]1CC[C@@H](c2nnc([C@@H]3CC[C@@H]4CN3C(=O)N4OS(=O)(=O)O)o2)CC1", "note": "[Compound 780, (2S,5R)-2-(5-((1s,4R)-4-aminocyclohexyl)-1,3,4-oxadiazol-2-yl)-7-oxo-1,6-diazabicyclo[3.2.1]octan-6-yl hydrogen sulfate]", "activity against bacterial strains that express OXA-15, compared with Avibactam": "more active than Avibactam"}, {"smiles": "O=C1N2C[C@@H](CC[C@H]2c2nnc(CC3CNC3)o2)N1OS(=O)(=O)O", "note": "[Compound 725, (2S,5R)-2-(5-(azetidin-3-ylmethyl)-1,3,4-oxadiazol-2-yl)-7-oxo-1,6-diazabicyclo[3.2.1]octan-6-yl hydrogen sulfate]", "activity against bacterial strains that express OXA-15, compared with Avibactam": "more active than Avibactam"}, {"smiles": "NCCNCCc1nnc([C@@H]2CC[C@@H]3CN2C(=O)N3OS(=O)(=O)O)o1", "note": "[Compound 716, (2S,5R)-2-(5-(2-((2-aminoethyl)amino)ethyl)-1,3,4-oxadiazol-2-yl)-7-oxo-1,6-diazabicyclo[3.2.1]octan-6-yl hydrogen sulfate]", "activity against bacterial strains that express OXA-15, compared with Avibactam": "more active than Avibactam"}, {"smiles": "N[C@H]1C[C@H](NCc2nnc([C@@H]3CC[C@@H]4CN3C(=O)N4OS(=O)(=O)O)o2)C1", "note": "[Compound 757, (2S,5R)-2-(5-((((1r,3S)-3-aminocyclobutyl)amino)methyl)-1,3,4-oxadiazol-2-yl)-7-oxo-1,6-diazabicyclo[3.2.1]octan-6-yl hydrogen sulfate]", "activity against bacterial strains that express OXA-15, compared with Avibactam": "more active than Avibactam"}, {"smiles": "N=C(N)NCc1nnc([C@@H]2CC[C@@H]3CN2C(=O)N3OS(=O)(=O)O)o1", "note": "[Compound 704, (2S,5R)-2-(5-(guanidinomethyl)-1,3,4-oxadiazol-2-yl)-7-oxo-1,6-diazabicyclo[3.2.1]octan-6-yl hydrogen sulfate]", "activity against bacterial strains that express OXA-15, compared with Avibactam": "more active than Avibactam"}, {"smiles": "O=C1N2C[C@@H](CC[C@H]2c2nnc(N3CCNCC3)o2)N1OS(=O)(=O)O", "note": "[Compound 713, (2S,5R)-7-oxo-2-(5-(piperazin-1-yl)-1,3,4-oxadiazol-2-yl)-1,6-diazabicyclo[3.2.1]octan-6-yl hydrogen sulfate]", "activity against bacterial strains that express OXA-15, compared with Avibactam": "more active than Avibactam"}, {"smiles": "O=C1N2C[C@@H](CC[C@H]2c2nnc(C3CCNCC3)s2)N1OS(=O)(=O)O", "note": "[Compound 719, (2S,5R)-7-oxo-2-(5-(piperidin-4-yl)-1,3,4-thiadiazol-2-yl)-1,6-diazabicyclo[3.2.1]octan-6-yl hydrogen sulfate]", "activity against bacterial strains that express OXA-15, compared with Avibactam": "more active than Avibactam"}]}]}
